According to PMC10850145, “Hormonal steroids induce multidrug resistance and stress response genes in Neisseria gonorrhoeae by binding to MtrR” (Nature Communications, 2024):
Where “and” joins values, the source holds several entries; their conditions need not be identical. Equal entries are not always repeated. Where two headings read alike, the source gives them in different places.

How the values were obtained:
[1] = molecular target: T1, MtrR (Neisseria gonorrhoeae, UniProt P39897); assay: Isothermal titration calorimetry, ligand binding to MtrR WT; details: ITC; for Kd: 25 °C, 1% MeOH
T1 construct: Hexa-histidine tag with TEV protease cleavage site (N, cleaved yes); made in house; host or cells: E. coli Rosetta Gami B(DE3) pLysS
T1 sequence (P39897 whole entry): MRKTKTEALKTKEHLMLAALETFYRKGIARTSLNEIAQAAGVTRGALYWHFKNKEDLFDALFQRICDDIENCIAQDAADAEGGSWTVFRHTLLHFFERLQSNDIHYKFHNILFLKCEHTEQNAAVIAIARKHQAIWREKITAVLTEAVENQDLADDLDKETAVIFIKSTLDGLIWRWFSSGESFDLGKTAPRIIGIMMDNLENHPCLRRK

[2] = molecular target: T2, MtrR binding to rpoH operator (27mer) (Neisseria gonorrhoeae, UniProt P39897); assay: Fluorescence polarization based DNA binding assay, rpoH operator; details: rpoH 27mer + 125 µM steroid
T2 construct: Hexa-histidine tag with TEV protease cleavage site (N, cleaved yes); made in house; host or cells: E. coli Rosetta Gami B(DE3) pLysS
T2 sequence (P39897 whole entry): as above
Description: Fluorescence polarization based-DNA binding data were collected using a Panvera Beacon 2000 fluorescence polarization system (Invitrogen) and analyzed with Prism (Graphpad Software 9, 10). Purified MtrR was buffer exchanged into “DNA” binding buffer (150 mM NaCl, 20 mM Tris-HCl pH 7.5, 2.5% glycerol, 1 mM TCEP). […] The reported oligoduplexes containing the rpoH and mtrCDE binding site differ in lengths, 27mer and 21mer, respectively[17],[21]. […] BSA and dI-dC are included as carriers and to control for nonspecific DNA binding. Samples were excited at 490 nm and polarized emissions measured at 530 nm. Controls were run with no protein (DNA ± methanol, hormonal steroids) to ensure that millipolarization values were not affected by experimental conditions alone. The binding affinity of protein for DNA was determined using the following equation: P = Pf + (Pb – Pf) [M] / (Kd + [M]) where P is the measured polarization, Pf is the polarization of free DNA, Pb is the polarization of the completely bound DNA, Kd is the equilibrium dissociation constant, and M is the concentration of protein. Pb and Kd were determined by nonlinear least-squares analysis. At least three independent experimental measurements were averaged for each reported binding constant.

[3] = test system: wild type FA19; assay: Antimicrobial susceptibility spot assay with hormone plus azithromycin or polymyxin B, wild type FA19; type: cell-based, Neisseria gonorrhoeae; details: for resistance to azithromycin in presence of sub-lethal hormone: wild-type FA19, GC agar, 24 h, visual
Description: (§1) Fig. 5 Effect of steroidal hormones on gonococcal antimicrobial susceptibility.
(§2) To determine the minimal inhibitory concentrations (MICs) by the steroidal hormones and their effect on antimicrobial susceptibility, 5 x 10^5 CFU and 1:5 serial dilutions of gonococcal strains were spotted on GC agar plates containing different concentrations of antibiotics and/or hormones as indicated. Antimicrobial susceptibility was assessed after 24 h incubation.

[4] = test system: mutant strain JF1 (ΔmtrR); assay: Antimicrobial susceptibility spot assay with hormone plus antibiotic, JF1 (ΔmtrR); type: cell-based, Neisseria gonorrhoeae; details: derivative lacking MtrR (JF1), azithromycin
Description: as §1, §2

[5] = test system: FA19 mtrD::kan (KH14); design: method as in PMID 31744915; details: cited from earlier work
[6] = test system: lptA-lacZ expression; assay: β-galactosidase assay, lptA-lacZ fusion (negative control gene); details: WT-lptA-lacZ
[7] = test system: ngo1249-lacZ expression; assay: β-galactosidase assay, ngo1249-lacZ fusion (negative control gene); details: WT-NGO1249-lacZ
[8] = molecular target: T3, MtrR W136A (Neisseria gonorrhoeae, UniProt P39897, W136A); assay: biochemical; type: binding
T3 construct: Hexa-histidine tag with TEV protease cleavage site (N, cleaved yes); made in house; host or cells: E. coli Rosetta Gami B(DE3) pLysS
T3 sequence (P39897 whole entry W136A): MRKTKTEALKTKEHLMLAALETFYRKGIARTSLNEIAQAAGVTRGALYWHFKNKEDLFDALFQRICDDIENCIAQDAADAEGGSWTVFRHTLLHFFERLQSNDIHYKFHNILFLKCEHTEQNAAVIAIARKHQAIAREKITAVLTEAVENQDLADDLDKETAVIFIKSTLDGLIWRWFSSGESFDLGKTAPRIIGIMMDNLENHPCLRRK

[9] = equilibrium dissociation constant (Kd), MtrR WT

Row | SMILES | Kd [1, 9] | fluorescence polarization, MtrR titration ([2]; MtrR WT dimer 0.00 nM) [mP] | fluorescence polarization, MtrR titration ([2]; MtrR WT dimer 25.90 nM) | fluorescence polarization, MtrR titration ([2]; MtrR WT dimer 35.50 nM) | fluorescence polarization, MtrR titration ([2]; MtrR WT dimer 54.52 nM) | fluorescence polarization, MtrR titration ([2]; MtrR WT dimer 73.35 nM) | fluorescence polarization, MtrR titration ([2]; MtrR WT dimer 110.67 nM) | fluorescence polarization, MtrR titration ([2]; MtrR WT dimer 147.65 nM) | fluorescence polarization, MtrR titration ([2]; MtrR WT dimer 220.59 nM) | fluorescence polarization, MtrR titration ([2]; MtrR WT dimer 292.55 nM) | fluorescence polarization, MtrR titration ([2]; MtrR WT dimer 363.86 nM) | fluorescence polarization, MtrR titration ([2]; MtrR WT dimer 434.54 nM) | fluorescence polarization, MtrR titration ([2]; MtrR WT dimer 504.61 nM) | fluorescence polarization, MtrR titration ([2]; MtrR WT dimer 574.07 nM) | resistance to azithromycin in presence of sub-lethal hormone [3] | change in antibiotic resistance in presence of sub-lethal hormone [4] | Mean Miller units ([6]; 0.1 µM hormone) [Miller units] | Mean Miller units ([6]; 1 µM hormone) [Miller units] | Mean Miller units ([6]; 10 µM hormone) [Miller units] | Mean Miller units ([6]; 50 µM hormone) [Miller units] | other results
1 | CC(=O)[C@H]1CC[C@H]2[C@@H]3CCC4=CC(=O)CC[C@]4(C)[C@H]3CC[C@]12C [Progesterone, progesterone] | 2.75 ± 0.7 µM | 0.00 | 11.91 mP and 9.75 mP and 10.51 mP | 14.38 mP and 9.72 mP and 14.14 mP | 18.81 mP and 15.99 mP and 17.44 mP | 23.45 mP and 18.32 mP and 20.67 mP | 27.11 mP and 21.95 mP and 25.01 mP | 29.38 mP and 25.62 mP and 28.21 mP | 32.78 mP and 29.35 mP and 32.41 mP | 36.31 mP and 32.79 mP and 35.11 mP | 36.91 mP and 35.45 mP and 37.94 mP | 40.61 mP and 38.05 mP and 40.54 mP | 41.81 mP and 39.19 mP and 42.17 mP | 44.75 mP and 41.42 mP and 44.21 mP | elevated levels of resistance | did not show change | 10 | 13 | 13 | 10 | change of MIC by mutations of the mtrD gene [5]: significant decrease; Mean Miller units ([6]; 100 µM hormone): 12 Miller units; Mean Miller units ([7]; 0.1 µM hormone): 5 Miller units; Mean Miller units ([7]; 1 µM hormone): 8 Miller units; Mean Miller units ([7]; 10 µM hormone): 8 Miller units; Mean Miller units ([7]; 50 µM hormone): 6.43 Miller units; Mean Miller units ([7]; 100 µM hormone): 6.923 Miller units
2 | C[C@]12CC[C@H]3[C@@H](CCC4=CC(=O)CC[C@@]43C)[C@@H]1CC[C@@H]2O [Testosterone, testosterone] | 2.26 µM and ~2.26 µM | 0.00 | 9.43 mP and 8.25 mP | 11.51 mP and 12.65 mP and 12.17 mP | 15.46 mP and 15.52 mP | 17.83 mP and 19.00 mP and 18.19 mP | 21.89 mP and 23.20 mP and 21.59 mP | 25.36 mP and 23.99 mP | 26.93 mP and 29.97 mP and 27.52 mP | 30.66 mP and 32.37 mP and 31.12 mP | 32.43 mP and 34.37 mP and 33.42 mP | 34.93 mP and 38.17 mP and 35.29 mP | 36.76 mP and 39.37 mP and 37.09 mP | 38.43 mP and 40.67 mP and 39.72 mP | – | – | – | – | – | – | binding stoichiometry N (ligand per MtrR) [1]: ~ 1; binding stoichiometry N (ligand per MtrR) ([1]; listed as TES): one molecule of steroid per MtrR monomer; Kd [8]: 5.79 ± 1.4 µM; fluorescence polarization, MtrR titration ([2]; MtrR WT dimer 6.35 nM): 2.56 mP and 4.77 mP and 2.79 mP; fluorescence polarization, MtrR titration ([2]; MtrR WT dimer 8.85 nM): 4.03 mP and 4.45 mP; fluorescence polarization, MtrR titration ([2]; MtrR WT dimer 11.32 nM): 4.86 mP and 6.47 mP and 4.69 mP; fluorescence polarization, MtrR titration ([2]; MtrR WT dimer 16.21 nM): 6.33 mP and 8.37 mP and 6.42 mP
3 | C[C@]12CC[C@@H]3c4ccc(O)cc4CC[C@H]3[C@@H]1CC[C@@H]2O [β-Estradiol, β-estradiol] | – | 0.00 | 3.74 mP and 5.72 mP and 6.73 mP | 6.01 mP and 7.12 mP and 8.13 mP | 8.01 mP and 9.55 mP and 10.56 mP | 11.39 mP and 12.36 mP | 12.31 mP and 14.15 mP and 15.93 mP | 15.17 mP and 15.72 mP and 17.43 mP | 18.17 mP and 19.19 mP and 21.36 mP | 20.01 mP and 21.72 mP and 23.36 mP | 21.41 mP and 22.99 mP and 26.06 mP | 23.51 mP and 24.99 mP and 26.53 mP | 25.37 mP and 27.45 mP and 28.59 mP | 29.37 mP and 27.75 mP and 29.19 mP | elevated levels of resistance | did not show change | 4.54 | 7 | 4.45 | 6.62 | binding stoichiometry N (ligand per MtrR) [1]: ~ 1; Kd ([1]; read-out: equilibrium dissociation constant (Kd), MtrR WT): 1.67 µM and ~1.67 µM; binding stoichiometry N (ligand per MtrR) ([1]; listed as EST): one molecule of steroid per MtrR monomer; Kd [8]: 1.06 ± 0.04 µM; resistance to polymyxin B in presence of hormone ([3]; strain FA19): increased resistance; Mean Miller units ([6]; 100 µM hormone): 6 Miller units; Mean Miller units ([7]; 0.1 µM hormone): 5 Miller units; Mean Miller units ([7]; 1 µM hormone): 5 Miller units; Mean Miller units ([7]; 10 µM hormone): 5.32 Miller units; Mean Miller units ([7]; 50 µM hormone): 4.874 Miller units; Mean Miller units ([7]; 100 µM hormone): 4.606 Miller units
